“Also recorded” adds a separate entry of the source.
What was measured:
Assay type in all cases: in vivo, human
[1] = system: recurrent depression patient; test: Case report: recurrent depression, switched to oral zuclopenthixol; details: for outcome under previous antidepressants: appropriate doses, sufficient duration, compliance ascertained
From the text: Recurrent depressive patient is defined as a patient experiencing two or more successive major depressive episodes that are separated by at least two months of not experiencing adequate symptoms of depression to qualify for major depressive disorder (DSM-IV).
Subject diagnosed with recurrent depression for the first time. […] Compliance with treatment was ascertained. […] After 2 years, the patient had still not relapsed.

[2] = system: therapy resistant depression patient; test: Case report: therapy resistant depression, switched to oral zuclopenthixol; details: for response to previous antidepressants: appropriate doses, sufficient duration
From the text: Resistant depression patient is defined as a patient not responding to an appropriate pharmacological treatment.
Subject one diagnosed with chronic depression for the first time. […] They were then switched to oral zuclopenthixol. Before initiating oral zuclopenthixol treatment, the patient was considered as “markedly ill”.

[3] = system: therapy refractory schizophrenic patient; test: Case report: therapy refractory schizophrenia, switched to oral zuclopenthixol
From the text: Subject two diagnosed with therapy refractory schizophrenia for the first time The patient had been treated with appropriate doses and for sufficient duration with oral aripiprazole, oral loxapine and oral olanzapine at appropriate doses and for sufficient duration. Compliance with treatment was ascertained. […] The patient was then switched to oral zuclopenthixol.

[4] = system: therapy resistant schizophrenic patient; test: Case reports: therapy resistant schizophrenic patients switched to oral zuclopenthixol; details: for response to previous antipsychotic agents: Case 1, oral, successive, appropriate doses and sufficient duration, compliance controlled
From the text: Therapy resistant schizophrenic patient is a schizophrenic patient who has tried two successive antipsychotic agents for a period of 6 weeks at an appropriate dosage with no significant symptomatic relief of symptoms and who was compliant to pharmacological treatment. This definition comprises determining relief of symptoms by measurement on a clinical scale such as PANSS (positive and negative […] scale). The relief should correspond to a reduction of the PANSS scale of at least 20% after a period of 6 weeks treatment of an appropriate dosage. Lack of relief of symptoms should be assessed prospectively and should not be documented on the basis of historical information. Compliance to treatment should be documented through a third party such as nurse or care giver. Lack of compliance is often a reason for unsatisfactory outcome of schizophrenia therapy; if compliance is not documented the diagnosis of therapy resistant schizophrenia cannot be ascertained. Appropriate dosage is defined as an equivalent chlorpromazine of 400-700 mg per day.
Case 1. […] Compliance to treatment was ascertained. Before being given zuclopenthixol, the patient presented severe debilitating schizophrenic symptoms.
Case 2. Subject diagnosed with therapy resistant schizophrenia for the first time. […] Compliance with treatment was ascertained. The patient was then switched to oral zuclopenthixol. Before initiating zuclopenthixol treatment, the patient was considered as “markedly ill”.
Case 3. Subject diagnosed with therapy resistant schizophrenia for the first time. […] Compliance with treatment was ascertained. The patient was then switched to oral zuclopenthixol. Before initiating zuclopenthixol treatment, the patient was considered as “among the most extremely ill patients”. After 8 weeks of treatment with zuclopenthixol, the patient was evaluated as having “much improved”, as confirmed by C.G.I. and P.A.N.S.S.
Case 4. Subject diagnosed with therapy resistant schizophrenia for the first time. The patient had been treated with appropriate doses and for sufficient duration with the following antipsychotics: oral risperidone, oral aripiprazole, oral loxapine, and oral olanzapine. Compliance with treatment was ascertained. The patient was then switched to oral zuclopenthixol. Before initiating zuclopenthixol treatment, the patient was considered as “severely ill”. After 8 weeks of treatment with zuclopenthixol, the patient was evaluated as having “much improved”, as confirmed by C.G.I. and P.A.N.S.S.
Case 5. Subject diagnosed with therapy resistant schizophrenia for the first time. […] The patient was then switched to oral zuclopenthixol. […] After 8 weeks of treatment with zuclopenthixol, the patient was evaluated as having “much improved”, as confirmed by C.G.I. and P.A.N.S.S.

[5] = system: therapy resistant bipolar disorder patient; test: Case reports: therapy resistant bipolar disorder, prescribed oral zuclopenthixol; details: for response to previous treatments: appropriate doses, sufficient duration, compliance ascertained
From the text: Resistant bipolar disorder patient is defined as a patient not responding to an appropriate pharmacological treatment.
Case 1. Subject diagnosed with therapy resistant bipolar disorder I presented as having manic state. They had been diagnosed for the first time. […] Compliance with treatment was ascertained. They were then prescribed oral zuclopenthixol. Before initiating oral zuclopenthixol treatment, the patient was considered as “among the most extremely ill patients”. After 8 weeks of treatment with zuclopenthixol, the patient was evaluated as having “much improved”.
Case 2. Subject diagnosed with therapy resistant bipolar disorder 11 presented with depressive symptoms. They had been diagnosed for the first time. […] Compliance with treatment was ascertained. They were then prescribed oral zuclopenthixol. Before initiating oral zuclopenthixol treatment, the patient was considered as “markedly ill”.

[6] = system: naïve schizophrenic patient; test: Case report: naïve schizophrenic patient given zuclopenthixol as first antipsychotic; details: 50 mg p. o. per day
From the text: Naïve schizophrenic patient is a schizophrenic patient who had never been treated with an antipsychotic agent.
After a period of 5 years of treatment, the patient had still not relapsed.

[7] = person one, after 8 weeks of treatment
[8] = person two, after 8 weeks of treatment

CN(C)CCC=C1c2ccccc2CCc2ccccc21 [amytriptiline]
outcome under previous antidepressants [1]: regularly experiencing new episodes of depression
response to previous antidepressants [2]: without satisfactory response

O=C1CCc2ccc(OCCCCN3CCN(c4cccc(Cl)c4Cl)CC3)cc2N1 [aripiprazole]
response to previous antipsychotics ([3]; appropriate doses, sufficient duration, significant troublesome residual symptoms remained): significant relief of symptoms

CNCCC(Oc1ccc(C(F)(F)F)cc1)c1ccccc1 (stereo not shown) [fluoxetine]
outcome under previous antidepressants [1]: regularly experiencing new episodes of depression

O=C(CCCN1CCC(O)(c2ccc(Cl)cc2)CC1)c1ccc(F)cc1 [haloperidol]
response to previous antipsychotic agents [4]: did not respond

Nc1nnc(-c2cccc(Cl)c2Cl)c(N)n1 [lamotrigine]
response to previous treatments [5]: without satisfactory response

Fc1ccc([C@@H]2CCNC[C@H]2COc2ccc3c(c2)OCO3)cc1 [paroxetine]
outcome under previous antidepressants [1]: regularly experiencing new episodes of depression
response to previous antidepressants [2]: without satisfactory response

Cc1nc2n(c(=O)c1CCN1CCC(c3noc4cc(F)ccc34)CC1)CCCC2 [risperidone]
response to previous antipsychotic agents [4]: did not respond

CN[C@H]1CC[C@@H](c2ccc(Cl)c(Cl)c2)c2ccccc21 [sertraline]
response to previous antidepressants [2]: without satisfactory response
response to previous treatments [5]: without satisfactory response

Cl.Cl.OCCN1CCN(CC/C=C2/c3ccccc3Sc3ccc(Cl)cc32)CC1 [zuclopenthixol, 4-[(3Z)-3-(2-chloro-9H-thioxanthen-9-ylidene)propyl]-1-piperazineethanol dihydrochloride]
period without relapse ([1]; person): ≥ 2 years
response to treatment ([1]; person): marked response
evaluation of improvement, confirmed by C.G.I. [2, 7]: much improved
reduction of depression on the Hamilton Depression Scale [2, 7]: marked response
outcome of first antipsychotic treatment [6]: successful
period of treatment without relapse [6]: ≥ 5 years
evaluation of improvement, confirmed by C.G.I. and P.A.N.S.S. [3, 8]: much improved
remission [3, 8]: achieve remission
effect on schizophrenic symptoms ([4]; Case 1, patient, exclusively oral zuclopenthixol, soon after start of treatment): major relief of schizophrenic symptoms
evaluation of improvement, confirmed by C.G.I. and P.A.N.S.S. ([4]; Cases 2-5, oral, after 8 weeks of treatment, dihydrochloride): very much improved; also recorded: much improved
evaluation of improvement ([5]; after 8 weeks of treatment, Case 1 bipolar I manic state, Case 2 depressive symptoms, dihydrochloride): much improved; also recorded: very much improved
